Columns and labels:
[1] = Cytotoxicity against human MRC9 cells assessed as reduction in cell viability incubated for 72 hrs by cell-titer blue assay; assay type: cell-based; conditions: MRC9, 72 h
[2] = target: T1, Protein deacetylase HDAC6 (Homo sapiens, UniProt Q9UBN7); test: Inhibition of recombinant full length human HDAC6 expressed in baculovirus infected Sf9 cells using FAM-RHKK-Ac as substrate incubated for 5 hrs by electrophoretic mobility shift assay
T1 sequence (Q9UBN7 whole entry): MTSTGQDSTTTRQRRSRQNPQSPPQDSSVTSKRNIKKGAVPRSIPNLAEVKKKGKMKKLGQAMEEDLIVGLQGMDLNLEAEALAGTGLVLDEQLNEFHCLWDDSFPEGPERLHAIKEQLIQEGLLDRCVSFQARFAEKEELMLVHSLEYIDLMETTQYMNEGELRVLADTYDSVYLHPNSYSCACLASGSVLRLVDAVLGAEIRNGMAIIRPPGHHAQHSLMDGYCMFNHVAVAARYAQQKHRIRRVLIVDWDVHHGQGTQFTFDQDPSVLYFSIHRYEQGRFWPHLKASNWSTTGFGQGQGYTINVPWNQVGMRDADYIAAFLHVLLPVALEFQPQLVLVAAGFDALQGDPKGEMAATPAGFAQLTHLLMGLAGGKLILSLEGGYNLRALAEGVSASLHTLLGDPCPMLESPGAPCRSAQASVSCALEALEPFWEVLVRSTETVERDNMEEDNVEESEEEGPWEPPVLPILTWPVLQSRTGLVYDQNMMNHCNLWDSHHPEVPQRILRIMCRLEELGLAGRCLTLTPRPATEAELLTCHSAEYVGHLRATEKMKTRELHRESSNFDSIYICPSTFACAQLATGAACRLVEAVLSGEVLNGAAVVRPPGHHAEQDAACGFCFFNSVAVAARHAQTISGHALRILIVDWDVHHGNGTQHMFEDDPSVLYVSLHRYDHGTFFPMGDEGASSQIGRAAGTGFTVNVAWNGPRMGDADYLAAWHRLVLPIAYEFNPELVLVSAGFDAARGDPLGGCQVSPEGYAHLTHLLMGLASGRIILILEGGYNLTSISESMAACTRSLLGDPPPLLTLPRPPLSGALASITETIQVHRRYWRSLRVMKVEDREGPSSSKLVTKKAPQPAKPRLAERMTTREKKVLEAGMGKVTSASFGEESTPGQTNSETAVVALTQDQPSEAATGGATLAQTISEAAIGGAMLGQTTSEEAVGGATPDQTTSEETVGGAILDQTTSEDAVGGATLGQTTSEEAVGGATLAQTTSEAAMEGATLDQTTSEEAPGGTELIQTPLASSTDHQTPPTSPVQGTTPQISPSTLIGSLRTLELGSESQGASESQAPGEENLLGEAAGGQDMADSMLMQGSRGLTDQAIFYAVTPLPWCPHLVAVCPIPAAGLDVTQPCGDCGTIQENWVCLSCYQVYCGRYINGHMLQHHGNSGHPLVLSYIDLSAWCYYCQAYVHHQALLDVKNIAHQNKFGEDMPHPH

HeLa = test: Cytotoxicity against human HeLa cells assessed as reduction in cell viability incubated for 72 hrs by cell-titer blue assay; assay type: functional, cell-based
MV4-11 [3] = test: Induction of apoptosis in human MV4-11 cells assessed as early apoptotic cells at 1 uM incubated for 18 hrs by annexin V FITC and PI based flow cytometry (reference value: 19.46 to 22.17 %); assay type: functional
MV4-11 [4] = test: Cytotoxicity against human MV4-11 cells assessed as reduction in cell viability incubated for 72 hrs by cell-titer blue assay; assay type: functional, cell-based; conditions: MV4-11, 72 h
Histone deacetylase 1 = Histone deacetylase 1 (Homo sapiens, UniProt Q13547); test: Inhibition of recombinant full length human HDAC1 expressed in baculovirus infected Sf9 cells using FAM-RHKK-Ac as substrate incubated for 17 hrs by electrophoretic mobility shift assay
[5] = Stability in CD-1 mouse hepatocytes assessed as compound remaining at 1 uM measured up to 6 hrs by LCMS analysis; assay type: ADME, cell-based, Hepatocyte; conditions: mouse, 6 h, 1 µM
MV4-11 [6] = test: Induction of apoptosis in human MV4-11 cells assessed as viable cells at 2 uM incubated for 18 hrs by annexin V FITC and PI based flow cytometry (reference value: 53.01 to 53.07 %); assay type: functional; conditions: Homo sapiens, MV4-11, 18 h; read-out: Activity
MV4-11 [7] = test: Induction of apoptosis in human MV4-11 cells assessed as early apoptotic cells at 0.25 uM incubated for 18 hrs by annexin V FITC and PI based flow cytometry (reference value: 19.46 to 22.17 %); assay type: functional
Histone deacetylase 7 = target: T2, Histone deacetylase 7 (Homo sapiens, UniProt Q8WUI4); test: Inhibition of recombinant full length human HDAC7 expressed in baculovirus infected Sf9 cells using FAM-RHKK-TFAc as substrate incubated for 3 hrs by electrophoretic mobility shift assay
T2 sequence (Q8WUI4 whole entry): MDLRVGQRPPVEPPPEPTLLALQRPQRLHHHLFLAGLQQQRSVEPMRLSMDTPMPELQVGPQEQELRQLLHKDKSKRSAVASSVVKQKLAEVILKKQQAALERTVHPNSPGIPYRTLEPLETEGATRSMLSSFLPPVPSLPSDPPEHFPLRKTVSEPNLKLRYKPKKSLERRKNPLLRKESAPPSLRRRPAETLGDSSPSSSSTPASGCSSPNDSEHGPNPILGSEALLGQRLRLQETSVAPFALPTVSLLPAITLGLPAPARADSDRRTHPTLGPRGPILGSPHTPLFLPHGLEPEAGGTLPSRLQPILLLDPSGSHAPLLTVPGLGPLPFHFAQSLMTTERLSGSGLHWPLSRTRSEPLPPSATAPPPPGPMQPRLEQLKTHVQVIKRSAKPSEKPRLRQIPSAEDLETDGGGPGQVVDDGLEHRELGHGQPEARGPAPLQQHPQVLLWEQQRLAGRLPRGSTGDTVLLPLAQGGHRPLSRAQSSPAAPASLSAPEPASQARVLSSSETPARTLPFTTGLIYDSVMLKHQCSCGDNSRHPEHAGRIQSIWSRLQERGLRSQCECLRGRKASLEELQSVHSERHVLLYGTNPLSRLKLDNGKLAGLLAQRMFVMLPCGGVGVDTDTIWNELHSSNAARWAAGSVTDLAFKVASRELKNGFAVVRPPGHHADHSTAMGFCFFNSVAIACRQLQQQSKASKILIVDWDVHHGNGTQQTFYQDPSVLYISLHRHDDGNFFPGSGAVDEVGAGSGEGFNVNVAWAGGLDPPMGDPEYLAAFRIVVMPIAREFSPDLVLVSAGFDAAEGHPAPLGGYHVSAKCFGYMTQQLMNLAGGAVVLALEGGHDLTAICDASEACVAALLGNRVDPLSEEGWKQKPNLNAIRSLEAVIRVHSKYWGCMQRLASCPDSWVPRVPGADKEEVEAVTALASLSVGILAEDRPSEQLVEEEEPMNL

[8] = Protein binding in CD-1 mouse plasma at 1 uM incubated for 6 hrs by LCMS analysis; assay type: ADME, cell-free; conditions: CD-1, mouse, read-out: PPB (converted)
[9] = Cmax in NSG mouse; assay type: ADME; conditions: in vivo

Chain of Histone deacetylase 1 (Q13547 whole entry): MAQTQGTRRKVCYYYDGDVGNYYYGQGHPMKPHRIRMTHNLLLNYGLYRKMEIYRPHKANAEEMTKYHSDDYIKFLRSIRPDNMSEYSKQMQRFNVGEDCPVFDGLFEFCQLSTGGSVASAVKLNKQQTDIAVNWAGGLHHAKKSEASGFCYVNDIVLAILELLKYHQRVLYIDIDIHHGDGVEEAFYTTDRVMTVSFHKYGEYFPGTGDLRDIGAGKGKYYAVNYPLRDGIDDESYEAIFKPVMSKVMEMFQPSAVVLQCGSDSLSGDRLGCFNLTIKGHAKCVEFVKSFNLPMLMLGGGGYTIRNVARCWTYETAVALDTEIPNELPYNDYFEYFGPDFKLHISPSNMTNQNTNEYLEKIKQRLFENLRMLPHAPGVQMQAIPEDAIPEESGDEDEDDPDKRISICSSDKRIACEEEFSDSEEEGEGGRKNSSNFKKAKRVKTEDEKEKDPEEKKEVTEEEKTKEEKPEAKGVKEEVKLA

IC50 [2]: 24.4 nM
IC50 (Histone deacetylase 1): 605 nM
Stability [5]: 20%
IC50 (Histone deacetylase 7): > 1000 nM
fraction unbound at 6 h, 1 µM [8]: 0.047
Cmax [9]: 10.7 µM
Compound: CC(C)(C)c1ccc(C(=O)Nc2ccc(C(=O)NO)cc2)cc1
IC50 [1]: 33.2 µM
IC50 (HeLa): 2530 nM
Activity (MV4-11 [3]): 29.78%
IC50 (MV4-11 [4]): 576 nM
viability at 2 µM (MV4-11 [6]): 22.1%
Activity (MV4-11 [7]): 17.82%

Source: ChEMBL document CHEMBL4373747 (ACS Med Chem Lett, 2020)
